Source: article PMC6214715 (Journal of veterinary pharmacology and therapeutics, 2018)

What was measured:
Format in all cases: in vitro ADME, canine
CYP2C21 = target: T1, CYP2C21 (Canis lupus familiaris, UniProt P56594); settings: recombinant CYP2C21; (+)-M1 10 μM, (+)-M2 0.5 μM
T1 sequence (P56594 1-487): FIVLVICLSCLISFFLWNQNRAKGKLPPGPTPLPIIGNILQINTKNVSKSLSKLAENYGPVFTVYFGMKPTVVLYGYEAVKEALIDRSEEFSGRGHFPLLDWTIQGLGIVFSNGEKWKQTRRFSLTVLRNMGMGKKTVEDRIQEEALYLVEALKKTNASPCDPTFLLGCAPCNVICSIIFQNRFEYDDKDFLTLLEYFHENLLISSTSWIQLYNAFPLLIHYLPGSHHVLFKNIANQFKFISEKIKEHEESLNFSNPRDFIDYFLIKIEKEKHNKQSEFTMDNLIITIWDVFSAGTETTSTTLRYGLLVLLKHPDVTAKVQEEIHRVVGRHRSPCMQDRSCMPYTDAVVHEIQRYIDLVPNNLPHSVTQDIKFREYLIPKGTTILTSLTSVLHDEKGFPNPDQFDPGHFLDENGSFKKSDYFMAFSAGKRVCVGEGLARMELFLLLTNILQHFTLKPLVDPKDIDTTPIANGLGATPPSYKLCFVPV

CYP3A26 = settings: recombinant CYP3A26; (+)-M1 10 μM, (+)-M2 0.5 μM
CYP1A1 = target: T2, CYP1A1 (Canis lupus familiaris, UniProt P56590); settings: recombinant CYP1A1; (+)-M1 10 μM, (+)-M2 0.5 μM
T2 sequence (P56590 1-524): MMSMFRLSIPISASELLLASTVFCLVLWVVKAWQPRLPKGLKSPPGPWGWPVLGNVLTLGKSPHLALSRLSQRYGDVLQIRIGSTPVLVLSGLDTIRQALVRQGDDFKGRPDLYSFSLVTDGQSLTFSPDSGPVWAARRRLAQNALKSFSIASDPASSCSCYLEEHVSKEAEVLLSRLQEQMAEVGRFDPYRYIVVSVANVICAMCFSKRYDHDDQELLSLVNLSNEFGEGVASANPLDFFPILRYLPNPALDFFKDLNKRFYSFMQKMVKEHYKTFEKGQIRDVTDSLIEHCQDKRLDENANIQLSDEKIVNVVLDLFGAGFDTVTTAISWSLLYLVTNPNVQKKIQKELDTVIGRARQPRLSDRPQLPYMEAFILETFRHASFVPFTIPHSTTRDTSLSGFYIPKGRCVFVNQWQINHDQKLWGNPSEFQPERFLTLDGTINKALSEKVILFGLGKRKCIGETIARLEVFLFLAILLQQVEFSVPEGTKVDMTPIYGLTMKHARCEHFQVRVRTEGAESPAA

`CN(C)CC1CCCCC1(O)c1cccc(O)c1.Cl` (single isomer, unassigned; (+)) [(+)-M1, (+)-O-desmethyltramadol hydrochloride] was tested, and the “formation rate of (+)-M5 (in words)” value (CYP2C21) was “highest”, the “formation rate of (+)-M5 (in words)” value (CYP3A26) was “only very low activities” and the “formation rate of (+)-M5 (in words)” value (CYP1A1) was “only very low activities”.
